Entries after “also recorded” stand apart in the source; their conditions may differ.
Columns and labels:
healthy human volunteers = experiment: Single ascending dose, placebo-controlled phase I study: adverse events, tolerability, MTD; type: in vivo; conditions: for Severity grade: CTCAE v4.0
Method: This was a single ascending dose, placebo-controlled, randomized, double blind trial. Randomization was carried out by computer generated random number sequence. Randomization was carried out for the drug and the placebo in a 3 : 1 ratio for each dose level. The drugs were dispensed in sealed bottles with the randomization code written on them. Randomization codes were provided in sealed opaque envelopes with the protocol specification that the codes may be opened by the investigator only in case of a serious or severe adverse event.
This was used to obtain a dose of 96 mg for a 60 kg person. […] The following dose levels were evaluated: 80, 160, 320, 400, 500, 600, and 700 mg. The starting dose was calculated by allometric scaling from animals. At each dose level, six volunteers received CDRI 97/78 and two received placebo except at 700 mg where only two volunteers were given this dose. At each dose level, volunteers were assessed before proceeding to the next dose.
The decision to stop the dose escalation was based on the appearance of the dose limiting toxicity (DLT) which was defined as the dose at which any of the following appeared: severe nausea, vomiting, heartburn, headache, remarkable change in vital parameters such as blood pressure, heart rate, respiratory rate or oxygen saturation of blood, changes in QT interval, or any event that in the opinion of the investigators required stopping of the trial.
In case this was not achieved, it was planned not to dose volunteers beyond 700 mg.
The volunteers after giving informed consent were screened. The screening process was done latest within 1 month of admission for dosing. The volunteers who fulfilled the inclusion/exclusion criteria were admitted in the CPU the night before drug administration. Standardized dinner was served at 9 pm the night prior to dosing. On day 0, baseline blood sample for biochemical and haematological examination and stool and urine samples for routine and microscopy were taken. They received the study drug, according to the randomization sequence, under supervision. The empty packaging was returned to the container. The volunteers received drug as per randomization. Breakfast was given half an hour after drug administration. Subsequently, standardized lunch and dinner were served to the volunteers.
The subjects were attached to a cardiac monitor and vital HR, BP, ECG, oxygen saturation, and RR were recorded. Corrected QT interval using Fridericia's formula was calculated. […] Unscheduled monitoring was undertaken whenever it felt necessary. […] At the end of the 7th day, they were said to have completed the study. […] The study was monitored by a Data Safety Monitoring Board.

[1] = test system: chloroquine resistant P. falciparum; design: method as in printed; conditions: chloroquine resistant P. falciparum in vitro; background, ref not given; cited from earlier work
P. cynomolgi = test system: P. cynomolgi; design: method as in printed; conditions: P. cynomolgi in rhesus monkeys; background, ref not given; cited from earlier work
[2] = AE Heaviness of head, 80 mg group
[3] = AE Visual disturbances, 320 mg group
[4] = single oral dose 80-700 mg, healthy male volunteers
[5] = volunteers given 500 mg, 600 mg (and placebo)

## C=C(c1ccc(OC(C)(C)COC(=O)CCC(=O)O)cc1)C1COC2(OO1)C1CC3CC(C1)CC2C3 (centres unmarked) [CDRI 97/78, Mono[2methyl2[3(1spiro[tricycle[3.3.1.13,7]decane2,3′-[1,2,4]trioxan] 6′-ylethenyl)phenoxy]propyl] ester]
Healthy human volunteers; 80 mg, Heaviness of head
  No. of events: 1
Healthy human volunteers; 160 mg
  Type of adverse events: None
Healthy human volunteers; 320 mg, Visual disturbance
  No. of events: 1
Healthy human volunteers; 400 mg, Bradycardia
  No. of events: 1
Healthy human volunteers; 400 mg, Drowsiness
  No. of events: 1
Healthy human volunteers; 400 mg, Itching
  No. of events: 1
Healthy human volunteers; 500 mg, Nausea
  No. of events: 1
Healthy human volunteers; 500 mg, Sedation
  No. of events: 1
Healthy human volunteers; 600 and 700 mg, Sedation
  No. of events: 1
Healthy human volunteers; AE Bradycardia, 400 mg group
  Causality assessment: Possible (possible (>5% but ≤50% chance of being drug related)
  Duration of AE: 60 min
  Reversal complete (yes or no): Yes
  Spontaneous reversal (yes or no): Yes
  Time (hrs) of onset after drug administration: 1 h
  Treatment given: None
  Severity grade: 1
Healthy human volunteers; AE Drowsiness, 400 mg group
  Causality assessment: Possible (possible (>5% but ≤50% chance of being drug related)
  Duration of AE: 60 min
  Reversal complete (yes or no): Yes
  Spontaneous reversal (yes or no): Yes
  Time (hrs) of onset after drug administration: 2 h
  Treatment given: None
  Severity grade: 1
Healthy human volunteers; [2]
  Causality assessment: Possible (possible (>5% but ≤50% chance of being drug related)
  Duration of AE: 15 min
  Reversal complete (yes or no): Yes
  Spontaneous reversal (yes or no): Yes
  Time (hrs) of onset after drug administration: 0.25 h
  Treatment given: None
  Severity grade: 1
Healthy human volunteers; AE Itching, 400 mg group
  Causality assessment: Possible (possible (>5% but ≤50% chance of being drug related)
  Duration of AE: 8 min
  Reversal complete (yes or no): Yes
  Spontaneous reversal (yes or no): Yes
  Time (hrs) of onset after drug administration: 24 h
  Treatment given: None
  Severity grade: 1
Healthy human volunteers; AE Nausea, 500 mg group
  Causality assessment: Possible (possible (>5% but ≤50% chance of being drug related)
  Duration of AE: 20 min
  Reversal complete (yes or no): Yes
  Spontaneous reversal (yes or no): Yes
  Time (hrs) of onset after drug administration: 0.25 h
  Treatment given: None
  Severity grade: 1
Healthy human volunteers; AE Sedation, 500 mg group
  Causality assessment: Possible (possible (>5% but ≤50% chance of being drug related)
  Duration of AE: 120 min
  Reversal complete (yes or no): Yes
  Spontaneous reversal (yes or no): Yes
  Time (hrs) of onset after drug administration: 2 h
  Treatment given: None
  Severity grade: 1-2
Healthy human volunteers; AE Sedation, 600 mg group
  Causality assessment: Possible (possible (>5% but ≤50% chance of being drug related)
  Duration of AE: 60 min
  Reversal complete (yes or no): Yes
  Spontaneous reversal (yes or no): Yes
  Time (hrs) of onset after drug administration: 2 h
  Treatment given: None
  Severity grade: 1-2
Healthy human volunteers; [3]
  Causality assessment: Remote (remote (<5% chance of being drug related))
  Duration of AE: 2 to 3 min
  Reversal complete (yes or no): Yes
  Spontaneous reversal (yes or no): Yes
  Time (hrs) of onset after drug administration: 36 h
  Treatment given: None
  Severity grade: 1
Healthy human volunteers; adverse event bradycardia
  Heart rate during adverse event bradycardia: 56-57 bpm
Healthy human volunteers; all dose levels, P = 0.43
  Incidence of adverse events, drug vs placebo groups: no significant difference
Healthy human volunteers; single oral dose 80-700 mg
  Serious adverse events: No serious adverse events were reported
Healthy human volunteers; [4]
  MTD (maximum tolerated dose): not reached; also recorded: could not be determined
  Tolerability / safety: well tolerated; also recorded: safe and tolerable
Healthy human volunteers; [5]
  Sedation: duration: 1 to 2 h
  Sedation: time of onset after drug administration: about 2 hours
[1]
  Antimalarial activity: powerful antimalarial activity
P. cynomolgi
  Antimalarial activity: powerful antimalarial activity

Source: paper PMC3985299, “Single Ascending Dose Safety and Pharmacokinetics of CDRI-97/78: First-in-Human Study of a Novel Antimalarial Drug” (Malaria Research and Treatment, 2014)
